# Reference: US20160038526A1, “TREATMENT OF PROSTATE CANCER” (THOMAS JEFFERSON UNIVERSITY, priority 2012, published 2016)
# What was measured:
# CWR22Rv1 cells = test: Cell viability, MTS metabolic activity assay, CWR22Rv1; format: cell-based, human; details: CWR22Rv1, 72 h
# Procedure: (§1) CWR22Rv1 prostate cancer cells were treated with N6BAP or the control compound C5 (Ctrl) at 25 μM concentration or vehicle for 24 h. Following trypan blue exclusion, the attached viable vs. de-attached dead cells were counted. […] The bars indicate mean±SD of triplicate wells. In another assay, CWR22Rv1, LNCaP and DU145 cells were treated with N6BAP, the control compound C5 (Ctrl) or vehicle at indicated concentrations. The fraction of alive cells was determined by MTS ([…]) metabolic activity assay (CellTiter 96® AQueous Assay kit). The results are shown in FIGS. 9C, 9D and 9E, respectively.
# [1] = system: A549 human lung cancer cells; test: Cell viability assay, A549; format: cell-based
# Procedure: as §1
# (§2) The procedure of Example 9 was followed, substituting cells of the following solid tumor cell lines for the cells treated in Example 9: A549 human lung cancer cells, CAPAN human pancreatic cancer cells, T47D human breast cancer cells, […], A2058 human melanoma and COS-7 monkey fibroblast cell lines.
# HepG2 (hepatocellular) = test: Cell viability assay, HepG2; format: cell-based
# LNCaP cells = test: Cell viability, MTS metabolic activity assay, LNCaP; format: cell-based, human; details: 72 hours
# Procedure: as §1
# Stat5a/b = test: Electrophoresis mobility shift assay (EMSA) of Stat5a/b binding to DNA, nuclear extracts of transfected COS-7 cells; format: cell-based; details: 2 hours pretreatment, 10 nmol/L Prl 30 minutes
# Procedure: COS-7 cells were transfected with plasmids expressing Stat5a (pStat5a) and PrlR (pPrlR) using FuGENE6. After 24 hours, the cells were starved in serum-free medium for 16 hours and then pretreated with N6BAP or the control compound C5 for 2 hours and the stimulated with 10 nmol/L Prl for 30 minutes. Nuclear extracts were prepared and a gel EMSA was performed as previously described (Ahonen et al., Endocrinology 2002, 143:228-238; Nevalainen et al., Mol Endocrinol 2002, 16:1108-1124). Double stranded Stat5a/b-binding oligonucleotide probe (upper strand sequence: 5′-[…]-3′) (Boucheron et al., J Biol Chem (1998), 273:33936-33941) were end-labeled with 50 μCi of γ-^32P-ATP (5000 ci/mMol) and incubated (1 ng per reaction) with 10 μl of nuclear extracts in the final volume of 20 μl of the binding mixture (50 mM TrisHCl, pH 7.4, 25 mM MgCl2, 500 mM KCl, 5 mM DTT, 50% glycerol) and 1 μl of 1 mg/ml Poly d[(I:C)]. For a supershift control, the samples were preincubated with anti-Stat5a or anti-Stat5b antibody (Millipore) or NRS as indicated. Polyacrylamide gels (5%) containing 5% glycerol and 0.25×Tris-borate/EDTA were pre-run in 0.25×Tris-borate/EDTA buffer at 4-10° C. for 2-4 h at 300V. The gels were run at room temperature for 2.33 hours at 200 V, dried and exposed to x-ray films (X-Omat, Eastman Kodak Co.). […]
# COS-7 (monkey kidney) = test: Cell viability assay, COS-7; format: cell-based
# Procedure: as §1, §2
# Bcl-xL = test: Expression of Stat5 target gene Bcl-xL in CWR22Rv1 and LNCaP cells (immunoblot); format: cell-based, human; details: 25 μM over time
# Procedure: Exponentially growing CWR22Rv1 and LNCaP cells were treated with N6BAP or the control compound C5 (Ctrl) for 48 h at concentrations indicated in FIG. 6 and whole cell lysates were immunoblotted with anti-cyclinD1 mAb. Exponentially growing CWR22Rv1 and LNCaP cells were treated with N6BAP or control compound C5 (Ctrl) at 25 μM for the periods of time indicated in FIG. 6, and whole cell lysates were immunoblotted with anti-cyclinD1 mAb or anti-Bcl-X1 pAb. Cell pellets were solubilized in lysis buffer [10 mM Tris-HCl (pH 7.6), 5 mM EDTA, 50 mM sodium chloride, 30 mM sodium pyrophosphate, 50 mM sodium fluoride, 1 mM sodium orthovanadate, 1% Triton X-100, 1 mM phenylmethylsulfonyl fluoride, 5 μg/ml aprotinin, 1 μg/ml pepstatin A, and […]], rotated end-over-end at 4° C. for 60 min, and insoluble material was pelleted at 12,000×g for 30 min at 4° C. The protein concentrations of clarified cell lysates were determined by simplified Bradford method (Bio-Rad Laboratories, Hercules, Calif.). The following primary antibodies were used for Western blotting, at the following concentrations: anti-β-actin pAb (1:4,000; Sigma), anti-cyclin D1 mAb (1:1000, BD Biosciences) and Bcl-xL pAb (1:1000, Cell Signaling, Danvers, Mass.).
# Stat3 = Stat3 (Homo sapiens, UniProt P40763); test: IL-6-induced nuclear translocation of Stat3 in DU145 cells (immunofluorescence); format: cell-based; set-up: endogenous in cells; host or cells: DU145; details: 2 hours pretreatment, 10 nmol/L IL-6 30 minutes
# Procedure: DU145 prostate cancer cells were pretreated with N6BAP or vehicle (DMSO) for 2 hours and then stimulated with 10 nmol/L IL-6 for 30 minutes. Cells were fixed with 100% methanol for 15 min and subsequently permeabilized with 0.1% Triton X-100 in PBS (pH 7.4). After blocking with 2% bovine serum albumin in PBS, cells were incubated with an antibody specific for Stat3 at 4° C. for 2 hours. Cells were then washed with PBS and incubated with FITC-conjugated secondary antibody (Jackson ImmunoResearch) at room temperature for 1 hour. The images were taken by using an inverted fluorescence microscopy (Carl Zeiss).
# Stat3, sequence (P40763 whole entry, species assumed): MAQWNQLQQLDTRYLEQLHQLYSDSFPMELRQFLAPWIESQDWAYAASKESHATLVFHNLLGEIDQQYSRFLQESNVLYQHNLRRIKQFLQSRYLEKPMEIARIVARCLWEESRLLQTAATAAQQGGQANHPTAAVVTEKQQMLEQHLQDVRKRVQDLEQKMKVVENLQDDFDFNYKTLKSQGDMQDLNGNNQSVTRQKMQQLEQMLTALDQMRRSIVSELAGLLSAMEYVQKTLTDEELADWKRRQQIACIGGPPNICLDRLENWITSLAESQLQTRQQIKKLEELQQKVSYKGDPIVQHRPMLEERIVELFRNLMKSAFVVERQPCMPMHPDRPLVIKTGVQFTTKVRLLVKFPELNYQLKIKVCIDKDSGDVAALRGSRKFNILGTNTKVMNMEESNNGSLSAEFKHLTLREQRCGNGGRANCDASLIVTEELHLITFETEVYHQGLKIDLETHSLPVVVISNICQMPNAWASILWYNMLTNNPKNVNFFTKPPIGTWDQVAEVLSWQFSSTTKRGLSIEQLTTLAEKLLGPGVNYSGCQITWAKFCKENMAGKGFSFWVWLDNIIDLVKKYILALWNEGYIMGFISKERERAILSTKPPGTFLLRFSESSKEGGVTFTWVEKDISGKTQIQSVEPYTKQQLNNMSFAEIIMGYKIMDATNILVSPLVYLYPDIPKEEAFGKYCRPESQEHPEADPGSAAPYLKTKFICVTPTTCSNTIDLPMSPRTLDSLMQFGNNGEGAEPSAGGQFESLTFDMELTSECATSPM
compound,measurement,setting,value
"O=P(O)(O)OC[C@H]1O[C@@H](n2cnc3c(NCc4ccccc4)ncnc32)[C@H](O)[C@@H]1O [N6BAP, N^6-benzyladenosine-5′-monophosphate]",number of viable cells,CWR22Rv1 cells,decreases the number of viable cells
same,cell viability,[1],did not affect the viability
same,cell viability,HepG2 (hepatocellular),did not affect the viability
same,number of viable cells,LNCaP cells,decreases the number of viable cells
same,binding of Stat5a/b to DNA (EMSA),Stat5a/b,inhibited binding of Stat5a/b to DNA
same,cell viability,COS-7 (monkey kidney),did not affect the viability
same,expression of Bcl-xL,Bcl-xL,down-regulates expression
same,nuclear translocation of IL-6-induced Stat3,Stat3,did not block translocation of Stat3 to the nucleus
